Results reported in EP0638553A1, “Carboxylic acid amides having a terminal carboxylic acid group as aggregation inhibiting drugs” (Dr. Karl Thomae GmbH, priority 1993, dated 1995).
Where a name gives a salt, the structure may show the parent alone.

Legend:
[1] = system: Humanthrombozyten; assay: Inhibition of the binding of ³H-BIBU 52 to human platelets (fibrinogen binding test); conditions: displacement of ³H-BIBU 52 (5 nM) from human platelets in plasma, 20 min at room temperature; read-out: Fibrinogen-Bindungstest IC₅₀
From the text: 1. Hemmung der Bindung von ³H-BIBU 52 an Humanthrombozyten:
Eine Suspension von Humanthrombozyten in Plasma wird mit ³H-BIBU 52 [= (3S,5S)-5-[(4'-Amidino-4-biphenylyl)oxymethyl]-3-[(carboxyl)methyl]-2-pyrrolidinon[3-³H-4-biphenylyl]], das den literaturbekannten Liganden ¹²⁵J-Fibrinogen ersetzt, (siehe deutsche Patentanmeldung P 42 14 245.8 der gleichen Anmelderin vom 30. 04. 1992, internes Zeichen: Case 5/1093-FL) und verschiedenen Konzentrationen der zu testenden Substanz inkubiert. Der freie und gebundene Ligand wird durch Zentrifugation getrennt und durch Szintillationszählung quantitativ bestimmt. Aus den Meßwerten wird die Hemmung der ³H-BIBU 52-Bindung durch die Testsubstanz bestimmt.
Hierzu wird aus einer Antikubitalvene Spenderblut entnommen und mit Trinatriumzitrat antikoaguliert (Endkonzentration 13 mM). Das Blut wird 10 Minuten bei 170 x g zentrifugiert und das überstehende plättchenreiche Plasma (PRP) abgenommen. Das Restblut wird zur Gewinnung von Plasma noch einmal scharf abzentrifugiert. Das PRP wird mit autologem Plasma 1:10 verdünnt. 750 ml werden mit 50 ml physiologischer Kochsalzlösung, 100 ml Testsubstanzlösung, 50 ml ¹⁴C-Sucrose (3.700 Bq) und 50 ml ³H-BIBU 52 (Endkonzentration: 5 nM) bei Raumtemperatur 20 Minuten inkubiert. Zur Messung der unspezifischen Bindung wird anstelle der Testsubstanz 5 ml BIBU 52 (Endkonzentration: […]) eingesetzt. Die Proben werden 20 Sekunden bei 10000 x g zentrifugiert und der Überstand abgezogen. 100 ml hiervon werden zur Bestimmung des freien Liganden gemessen. Das Pellet wird in 500 ml 0,2N NaOH gelöst, 450 ml werden mit 2 ml Szintillator und 25 ml 5N HCl versetzt und gemessen. Das im Pellet noch verbliebene Restplasma wird aus dem ¹⁴C-Gehalt bestimmt, der gebundene Ligand aus der ³H-Messung. Nach Abzug der unspezifischen Bindung wird die Pelletaktivität gegen die Konzentration der Testsubstanz aufgetragen und die Konzentration für eine 50%ige Hemmung der Bindung ermittelt.

[2] = system: Thrombozytenaggregation; assay: Collagen-induced platelet aggregation in platelet-rich plasma (method of Born and Cross); format: cell-based; conditions: human platelet-rich plasma, 10 min preincubation at 37°C, 50% change of optical density, read-out: Hemmung der Plättchenaggregation EC₅₀
From the text: 2. Antithrombotische Wirkung
Die Thrombozytenaggregation wird nach der Methode von Born und Cross (J. Physiol. 170, 397 (1964)) in plättchenreichem Plasma gesunder Versuchspersonen gemessen. Zur Gerinnungshemmung wird das Blut mit Natriumcitrat 3,14 % im Volumenverhältnis 1:10 versetzt.
Collagen-induzierte Aggregation
Der Verlauf der Abnahme der optischen Dichte der Plättchensuspension wird nach Zugabe der aggregationsauslösenden Substanz photometrisch gemessen und registriert. Aus dem Neigungswinkel der Dichtekurve wird auf die Aggregationsgeschwindigkeit geschlossen. Der Punkt der Kurve, bei dem die größte Lichtdurchlässigkeit vorliegt, dient zur Berechnung der "optical density".
Die Collagen-Menge wird möglichst gering gewählt, aber doch so, daß sich eine irreversibel verlaufende Reaktionskurve ergibt. Verwendet wird das handelsübliche Collagen der Firma Hormonchemie, München.
Vor der Collagen-Zugabe wird das Plasma jeweils 10 Minuten mit der Substanz bei 37°C inkubiert.
Aus den erhaltenen Meßzahlen wird graphisch eine EC₅₀ bestimmt, die sich auf eine 50%ige Änderung der "optical density" im Sinne einer Aggregationshemmung bezieht.

[3] = system: Maus; assay: Tolerability after intravenous administration to the mouse; format: in vivo; conditions: 30 mg/kg intravenous, 3 animals tested

SMILES	IC50 [1] [nM]	EC50 [2] [nM]	Mortality (verstorbene Tiere) [3]
O=C(N[C@H]1CC[C@H](C(=O)O)CC1)c1ccc(CCC23CCN(CC2)CC3)cc1 [1(2), trans-4-[4-[2-(4-Chinuclidinyl)-ethyl]-benzoylamino]-cyclohexancarbonsäure]	–	–	keines der 3 getesteten Tiere verstarb
CCCCS(=O)(=O)NC1(C(=O)O)CCC(NC(=O)N2CCC(OCC3CCNCC3)CC2)CC1 (stereo not drawn) [1(7), N-[1-Carboxy-cis-4-[[4-[(4-piperidinyl)-methyloxy]-1-piperidinyl]-carbonylamino]-cyclohexyl]-n-butansulfonamid]	1500	3100	–
O=C(O)CN(CCNC(=O)N1CCC(OCC2CCNCC2)CC1)CC(=O)O [1(14), N-Carboxymethyl-N-[2-[[4-[(4-piperidinyl)-methyloxy]-1-piperidinyl]-carbonylamino]-ethyl]-glycin]	6900	23000	–
O=C(NC1CCNCC1)c1ccc(C(=O)N[C@H]2CC[C@H](C(=O)O)CC2)cc1 [3(4), trans-4-[4-[(4-Piperidinyl)-aminocarbonyl]-benzoylamino]-cyclohexancarbonsäure-hydrochlorid]	2100	2060	–
O=C(O)CCC1CCN(C(=O)c2ccc(NCC3CCNCC3)cc2)CC1 [3(7), 4-(2-Carboxy-ethyl)-1-[4-[[(4-piperidinyl)-methyl]-amino]-benzoyl]-piperidin-hydrochlorid]	49000	45000	–
O=C(O)CC1CCN(C(=O)c2ccc(NCC3CCNCC3)cc2)CC1 [3(8), 4-Carboxymethyl-1-[4-[[(4-piperidinyl)-methyl]-amino]-benzoyl]-piperidin-hydrochlorid]	6400	5800	–
O=C(N[C@H]1CC[C@H](C(=O)O)CC1)c1ccc(NC(=O)C2CCNCC2)cc1 [3(9), trans-4-[4-[(4-Piperidinyl)-carbonylamino]-benzoylamino]-cyclohexancarbonsäure-hydrochlorid]	2300	3200	–
O=C(N[C@H]1CC[C@H](C(=O)O)CC1)N1CCC(OCC2CCNCC2)CC1 [3(17), trans-4-[[4-[(4-Piperidinyl)-methyloxy]-1-piperidinyl]-carbonylamino]-cyclohexancarbonsäure]	91	300	keines der 3 getesteten Tiere verstarb
NCC1CCc2cc(C(=O)N[C@H]3CC[C@H](CCC(=O)O)CC3)ccc2C1 (stereo partly drawn) [3(24), 3-[trans-4-[(2-Aminomethyl-1,2,3,4-tetrahydro-6-naphthyl)-carbonylamino]-cyclohexyl]-propionsäure-hydrochlorid]	1500	4410	–
COC(=O)[C@H]1CC[C@H](NC(=O)N2CCC(OCC3CCNCC3)CC2)CC1 [4(23), trans-4-[[4-[(4-Piperidinyl)-methyloxy]-1-piperidinyl]-carbonylamino]-cyclohexancarbonsäure-methylester-hydrochlorid]	180	370	keines der 3 getesteten Tiere verstarb
NCCOc1ccc(C(=O)N[C@H]2CC[C@H](OCC(=O)O)CC2)cc1 [4(34)]	840	3370	–
O=C(N[C@H]1CC[C@H](C(=O)O)CC1)c1ccc(OCC23CCN(CC2)CC3)cc1 [Beispiel 3, trans-4-[4-[(4-Chinuclidinyl)-methyloxy]-benzoylamino]-cyclohexancarbonsäure-hydrochlorid]	85	360	keines der 3 getesteten Tiere verstarb

Second part, led by results:

IC50 [1] [nM]	EC50 [2] [nM]	SMILES	Mortality (verstorbene Tiere) [3]
360	610	O=C(O)CC1CCN(C(=O)c2ccc(CCC34CCN(CC3)CC4)cc2)CC1 [1(1), 4-Carboxymethyl-1-[4-[2-(4-chinuclidinyl)-ethyl]-benzoyl]-piperidin]	–
130	1300	NC1(C(=O)O)CCC(NC(=O)N2CCC(OCC3CCNCC3)CC2)CC1 (stereo not drawn) [1(9), 1-Carboxy-cis-4-[[4-[(4-piperidinyl)-methyloxy]-1-piperidinyl]-carbonylamino]-cyclohexylamin]	–
630	1200	O=C(N[C@H]1CC[C@H](C(=O)O)CC1)c1cccc(OCC2CCNCC2)c1 [3(15), trans-4-[3-[(4-Piperidinyl)-methyloxy]-benzoylamino]-cyclohexancarbonsäure-hydrochlorid]	–
160	270	O=C(N[C@H]1CC[C@H](C(=O)O)CC1)N1CCC(COC2CCNCC2)CC1 [3(16), trans-4-[[4-[(4-Piperidinyl)-oxymethyl]-1-piperidinyl]-carbonylamino]-cyclohexancarbonsäure-hydrochlorid]	–
190	270	O=C(N[C@H]1CC[C@H](C(=O)O)CC1)c1ccc(OCC2CCNCC2)cc1 [3(23), trans-4-[4-[(4-Piperidinyl)-methyloxy]-benzoylamino]-cyclohexancarbonsäure-hydrochlorid]	–
1200	1070	O=C(N[C@H]1CC[C@H](C(=O)O)CC1)c1ccc(CCc2ccncc2)cc1 [3(30), trans-4-[4-[2-(4-Pyridyl)-ethyl]-benzoylamino]-cyclohexan-carbonsäure-hydrochlorid]	–
–	1200	NCCc1ccc(C(=O)N[C@H]2CC[C@H](CCC(=O)O)CC2)cc1 [3(32), trans-1-[4-(2-Amino-ethyl)-benzoylamino]-4-(2-carboxyethyl)-cyclohexan-hydrochlorid]	–
130	970	NCCOc1ccc(C(=O)N[C@H]2CC[C@H](CCC(=O)O)CC2)cc1 [4(32)]	–
550	1700	O=C(N[C@H]1CC[C@H](C(=O)O)CC1)c1cccc(CCC23CCN(CC2)CC3)c1 [Beispiel 1, trans-4-[3-[2-(4-Chinuclidinyl)-ethyl]-benzoylamino]-cyclohexancarbonsäure]	–
